“Also recorded” adds a separate entry of the source.
Columns and labels:
[1] = cited from earlier work
[2] = tested on: normal rats; settings: single subcutaneous dose, compared to rhEPO and darbepoetin; cited from earlier work
[3] = tested on: UT7 cells; settings: UT-7EPO cells; cited from earlier work
[4] = per mg of protein; cited from earlier work
[5] = tested on: UT7 cells; experiment: UT7 cell proliferation assay; assay type: cell-based, human
Experimental: Particularly useful in identifying and calibrating compositions useful in the method of the invention is the UT7 cell proliferation assay. The UT7 is a human leukemic cell line that has been adapted to become EPO-dependant. In order to use the UT7 cell proliferation assay for selection of a composition or a dose to be administered to a subject having low blood hemoglobin content, the cells are washed free or normal culture medium and starved for EPO for 24 hours prior to assay. For example, the UT-7 cell starvation can proceed in IMDM media with added L-glutamine and FBS at 5% (I5Q). The cells are then prepared and suspended in the appropriate media to a final concentration of 6×10^5 cells/mL (yields a final concentration of 30,000 cells per 96-well chamber). An EPO standard is prepared by diluting EPO stock to 5 ng/mL followed by 1:2 serial dilutions down to a concentration of 0.0098 ng/mL in I5Q media. […] Cell proliferation is assessed using a vital stain such as Promega's MTS solution (Promega, Madison, Wis.) according to the manufacturer's instructions. The EC50 is calculated from a curve fit of concentration vs proliferation as measured by the increase in absorbance of the chromophore or other signal. […]
Using UT-7 cells, which display EPO-R and require an ESA for proliferation, competitive binding for the human EPO-R between CNTO 530 inhibited and ^125I-EPO was measured. […]

[6] = tested on: W/Wv mice; experiment: Hgb response in c-kit deficient (W/Wv) mice; assay type: in vivo, mouse; settings: single subcutaneous dose, 12,000 U/kg
Experimental: Materials and Methods. Male and female WBB6F1/J-KitW/KitW-v (black eyed, white coat, affected; Related genotype ala KitW/KitW-v) (W/Wv) mice were obtained from Jackson Laboratories, Bar Harbor, Me. at 5 to 7 weeks of age. These mice are deficient in c-kit the receptor for SCF. The mice were group housed in filter topped plastic shoe-box style cages. CNTO 530 (30 UT-7 Units/ug) and epoetin-α (120 UT-7 Units/ug) were tested and PBS pH 7.4 was used as the control article. Study Design: On Day 1 mice received a weight-adjusted, subcutaneous (s.c.) dose of epoetin-α, CNTO 530 or PBS (10 mL/kg) according to Table 4. Three mice/sex were bled per group at each designated time point according to Table 4. On Days 4, 9, 14, and 28 (males) or 30 (females), mice were anesthetized with CO2 and blood samples ([…]) taken via open chest cardiac puncture for hematology. Blood was collected directly into tubes prepared with EDTA and mixed thoroughly for approximately 10 seconds and placed on a rocker to prevent coagulation. Whole blood was be analyzed using an ADVIA 120 hematology analyzer.
Results. Data are expressed as the group mean and standard deviation or as group mean change from control. Mean values for the PBS control mice were used as the Day 1 baseline. For graphing, the nominal day may differ from the actual day of blood sampling by 1 day.

[7] = tested on: ala +/+ mice; experiment: Hgb response in normal ala +/+ littermates; assay type: in vivo, mouse; settings: single subcutaneous dose, 12,000 U/kg
[8] = tested on: Tg197 mice; experiment: Hgb response in Tg197 mice (anemia of chronic disease); assay type: in vivo, mouse
Excerpt: The pharmacodynamics of epoetin-α in C57Bl/6 and Tg197 mice was first compared. Secondly, CNTO 530, epoetin-α and darbepoetin in Tg197 mice was compared.
Materials and Methods. Nine-week old heterozygous Tg197-CBA F1 transgenic mice, age-matched C57Bl/6 mice and age-matched CBA-057Bl/6 F1 hybrid (CBF1) mice were obtained from Ace Laboratories (Boyertown, Pa.), Ace Laboratories and Jackson Laboratories (Bar Harbor, Me.), respectively. Founder Tg197 mice for the transgenic colony was obtained from G. Kollias. The breeding stock was maintained as homozygotes and received weekly injections of murine anti-human TNFa antibodies (10 mg/kg intraperitoneally) to control their arthritis. For these experiments, homozygous Tg197 males were bred to CBA females. CBF1 mice were used because their disease progresses more slowly than that seen in homozygous Tg197 mice. The mice were group housed (4 per cage) in filter-topped plastic shoebox style cages. The animals were individually identified with ear tags, placed at least a week prior to the start of the study. […] All mice were maintained in the pathogen-free vivarium at Centocor R&D, Inc., Radnor Pa. The Institutional Animal Care and Use Committee at Centocor approved all associated procedures.
CNTO 530, recombinant human erythropoietin (epoetin-α, OrthoBiotech, Raritian N.J.), darbepoetin (Amgen, Thousand Oaks, Calif.), and PBS. Doses were expressed as mg/kg or UT-7 Units/kg (U/kg).
To comparative the pharmacodynamics of epoetin-α in C57Bl/6 and Tg197 mice, study animals were assigned to groups as shown in Table 1. On Day 0 the mice received a weight-adjusted, subcutaneous injection of test article (freshly diluted from stock) or PBS. Mice were euthanized by CO2 asphyxiation and blood was collected for each sample. […]
Hematology: Blood samples from mice in the model characterization and pharmacodynamic studies were collected at the times indicated in Tables 1 and 2. […] Data are expressed as group mean±standard deviation. Results: Data are expressed as the group mean and standard deviation or as group mean change from control. […]

[9] = tested on: C57Bl/6 mice; experiment: Hgb response in C57Bl/6 mice (Example 1); assay type: in vivo, mouse
Excerpt: To comparative the pharmacodynamics of epoetin-α in C57Bl/6 and Tg197 mice, study animals were assigned to groups as shown in Table 1. On Day 0 the mice received a weight-adjusted, subcutaneous injection of test article (freshly diluted from stock) or PBS. Mice were euthanized by CO2 asphyxiation and blood was collected for each sample.
Hematology: Blood samples from mice in the model characterization and pharmacodynamic studies were collected at the times indicated in Tables 1 and 2. Blood was collected from mice anesthetized with a CO2 mixture via open chest cardiac puncture into commercially prepared EDTA coated microtubes. Blood analyses were performed on whole blood using the ADVIA 120 blood analyzer (Bayer Diagnostics, Tarrytown, N.Y.). Data are expressed as group mean±standard deviation. Results: Data are expressed as the group mean and standard deviation or as group mean change from control. Mean values for the PBS control mice were used as the Day 1 baseline. For graphing, the nominal day may differ from the actual day of blood sampling by 1 day. Mean (±standard deviation) hematological data for 30 CBF1 and 50 Tg197 PBS control mice (9 to 13 weeks old) are shown in Table 3.

[10] = molecular target: T1, human EPO-R displayed on UT-7 cells (human, UniProt P19235 25-508); experiment: cell-based or functional assay
T1 sequence: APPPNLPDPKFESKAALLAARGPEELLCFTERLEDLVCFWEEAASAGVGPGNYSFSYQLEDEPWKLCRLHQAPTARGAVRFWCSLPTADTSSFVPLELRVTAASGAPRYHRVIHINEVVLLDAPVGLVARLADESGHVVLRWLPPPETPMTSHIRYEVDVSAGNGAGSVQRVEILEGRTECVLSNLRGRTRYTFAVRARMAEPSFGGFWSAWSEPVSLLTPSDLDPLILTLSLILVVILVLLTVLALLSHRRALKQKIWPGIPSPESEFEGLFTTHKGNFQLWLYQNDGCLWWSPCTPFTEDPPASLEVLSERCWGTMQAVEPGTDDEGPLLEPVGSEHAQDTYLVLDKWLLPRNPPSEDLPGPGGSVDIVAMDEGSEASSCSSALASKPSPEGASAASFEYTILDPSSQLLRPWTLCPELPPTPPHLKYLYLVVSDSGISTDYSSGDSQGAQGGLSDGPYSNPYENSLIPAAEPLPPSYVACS

[11] = molecular target: T1, human EPO-R displayed on UT-7 cells; experiment: competitive binding against 125I-EPO (0.5 nM) on UT-7 cells displaying human EPO-R
Experimental: Using UT-7 cells, which display EPO-R and require an ESA for proliferation, competitive binding for the human EPO-R between CNTO 530 inhibited and ¹²⁵I-EPO was measured.

[12] = molecular target: T2, EPO-receptor (form in the assay not stated) (human, UniProt P19235 25-508, limits assumed); experiment: assay not stated
T2 sequence: T1 sequence

Molecule: CNTO 528: EPO-mimetic peptide antibody fusion protein; disulfide-linked homodimer of SEQ ID NO: 2, two EMP1 copies and portions of human IgG
- pharmacodynamic response ([1]; IV 0.03-0.9 mg/kg): prolonged, dose-dependent erythropoietic responses; also recorded: dose dependent increase in RBC count; also recorded: dose-dependent increase in soluble transferrin receptor concentration; also recorded: dose-dependent increase in endogenous EPO concentration
- tolerability ([1]; IV 0.03-0.9 mg/kg): well tolerated
- pharmacokinetics ([1]; IV): linear and approximately dose proportional
- mean Hgb concentration above baseline at last measurement ([1]; approximately 2.5 months after a single dose): 0.4 g/dL
- immunogenicity ([1]; human, in vivo): No immunogenicity was observed
- time of maximum effect on Hgb concentration ([1]; single IV dose): 22 days
- hematology response / efficacy [2]: longer-lived reticulocytosis and a longer-lived increase in hemoglobin; also recorded: only minor changes in red cell distribution width (RDW) or mean cell volume (MCV); also recorded: no effect on mean platelet volume (MPV); also recorded: efficacious in rat models of anemia and in a rat model of pure red cell aplasia
- fold less potent than rhEPO on a molar basis, growth stimulation [3]: approximately 10 fold

Molecule: Human urinary EPO: isolated human urinary EPO, international reference standard for EPO assays
- specific activity [4]: about 70,000 U/mg

Molecule: epoetin-α: recombinant human erythropoietin (OrthoBiotech), 166 amino acid sequence SEQ ID NO: 1
- in vitro activity [5]: 120 UT-7 Units/ug
- EC50 ([5]; 48 hours, MTS): ~18 pM
- increase in hemoglobin [6]: less than 1 g/dL
- increase in Hgb [7]: approximately 2 g/dL
- Hgb response (increase) ([8]; 0.3 mg/kg s.c., single dose): ~1 g/dL
- day Hgb returned to baseline ([8]; 0.3 mg/kg s.c., single dose): ≤ 8 days
- Hgb response ([8]; single s.c. dose, comparison at 30,000 U/kg): little dose response between 0.03 and 0.3 mg/kg
- day Hgb returned to baseline ([9]; 0.3 mg/kg s.c., single dose): 15 days
- increase in Hgb ([9]; 0.3 mg/kg s.c., single dose): ~1.5 g/dL
- Hgb response ([9]; 0.03 and 0.3 mg/kg s.c.): dose-dependent increase in hemoglobin
- specific activity [4]: 100,000 to 200,000 U/mg

B1: CNTO 530 (Fc fusion)
chain: QIQGGTYSCHFGPLTWVCKPQGGGSCPPCPAPEAAGGPSVFLFPPKPKDTLMISRTPEVTCVVVDVSQEDPEVQFNWYVDGVEVHNAKTKPREEQFNSTYRVVSVLTVLHQDWLNGKEYKCKVSNKGLPSSIEKTISKAKGQPREPQVYTLPPSQEEMTKNQVSLTCLVKGFYPSDIAVEWESNGQPENNYKTTPPVLDSDGSFFLYSRLTVDKSRWQEGNVFSCSVMHEALHNHYTQKSLSLSLGK
notes: EPO-mimetic peptide antibody fusion protein; Homodimer joined by disulfide bonds through cysteines in the immunoglobulin-derived portion; May or may not be glycosylated; also called Dimeric EMP1 construct: CNTO 530
- induction of UT-7 cell proliferation (EC50) [10]: ~55 pM
- potency against rHuEPO in a simple proliferation assay using UT-7 cells [10]: ~24 fold less potent than rHuEPO (molar)
- rescue of EPO-deprived UT-7 cells from apoptosis (EC50) [10]: ~21 pM
- IC50 [11]: ~60000 pM
- Kd [12]: ~10000 pM

— patent US20100266591A1, “METHOD OF TREATING ERYTHROPOIETIN HYPORESPONSIVE ANEMIAS” (priority 2008, published 2010)
